In patent US11117947B2, “Double-acylated GLP-1 derivatives” (Novo Nordisk A/S, priority 2011, dated 2021):
pEC50: −log10 of the molar value. Where two headings read alike, the source gives them in different places. Numbered stars: 1 amine (or outer) side, 2 acyl side, 3 side chain; on linkers, the order of the positions; unused ones are H or OH. Square brackets hold non-standard residues; d marks the D form. Side chains are listed from the residue outwards. Peptide text beside a SMILES is read from it. * marks the point of attachment. Decanoyl(10-(4-HOOC-PhO)) = O=C(O)c1ccc(OCCCCCCCCCC(=O)*)cc1; d(γGlu) = O=C(O)[C@@H](CCC(=O)[*:2])N[*:1]; γGlu = O=C(O)[C@H](CCC(=O)[*:2])N[*:1]; C14 diacid = O=C(O)CCCCCCCCCCCCC(=O)*; AEEA = NCCOCCOCC(=O)O; Aib = CC(C)(N)C(=O)O

Experiments:
[1] = Estimate of oral bioavailability: gut injection in rat (caprate), exposure in plasma; assay type: in vivo; settings: injection in jejunum, 1000 uM in 55 mg/ml sodium caprate, plasma concentration (pM) at 30 min divided by dosing solution concentration (μM), mean n=4
In short: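 Male Sprague Dawley rats (~240 g, n=4) received 100 μl of 1000 uM derivative in 55 mg/ml sodium caprate by catheter into proximal or mid jejunum. Tail-vein EDTA plasma was sampled up to 240 min. Peptide was quantified by two-antibody bead chemiluminescence immunoassay, giving mean concentration-time profiles (pmol/l).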

[2] = target: T1, human GLP-1 receptor (Homo sapiens, UniProt P43220); assay: GLP-1 receptor binding: displacement of 125I-GLP-1 (SPA) at low and high albumin
T1 construct: expressed in transfected cells; membranes
T1 sequence (P43220 24-463): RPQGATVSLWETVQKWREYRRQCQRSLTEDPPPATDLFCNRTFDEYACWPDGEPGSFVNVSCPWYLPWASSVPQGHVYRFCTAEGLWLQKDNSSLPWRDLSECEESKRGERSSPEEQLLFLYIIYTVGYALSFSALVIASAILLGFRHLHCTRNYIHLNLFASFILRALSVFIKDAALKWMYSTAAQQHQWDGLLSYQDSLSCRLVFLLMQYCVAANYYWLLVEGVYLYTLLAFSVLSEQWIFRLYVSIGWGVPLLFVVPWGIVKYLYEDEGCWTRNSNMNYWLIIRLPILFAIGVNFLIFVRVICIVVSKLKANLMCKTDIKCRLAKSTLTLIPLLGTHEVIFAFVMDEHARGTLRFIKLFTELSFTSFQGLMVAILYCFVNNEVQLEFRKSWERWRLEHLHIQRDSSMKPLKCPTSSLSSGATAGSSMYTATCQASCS
In short: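 Membranes from hamster cells stably transfected with the receptor, with WGA SPA beads and 0.06 nM [^125I]-GLP-1(7-36)NH2, incubated 120 min at 30 °C with shaking.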

[3] = target: T1, human GLP-1 receptor; assay: In vitro potency: stimulation of cAMP formation (AlphaScreen cAMP Assay) in membranes expressing the human GLP-1 receptor; assay type: biochemical; settings: membranes from BHK467-12A (tk-ts13) expressing the human GLP-1 receptor
Description: Purified plasma membranes from a stable transfected cell line, BHK467-12A (tk-ts13), expressing the human GLP-1 receptor were stimulated with the GLP-1 analogue or derivative in question, and the potency of cAMP production was measured using the AlphaScreen™ cAMP Assay Kit from Perkin Elmer Life Sciences. The basic principle of the AlphaScreen Assay is a competition between endogenous cAMP and exogenously added biotin-cAMP. The capture of cAMP is achieved by using a specific antibody conjugated to acceptor beads.
A stable transfected cell line and a high expressing clone were selected for screening. The cells were grown at 5% CO2 in DMEM, 5% FCS, 1% Pen/Strep (Penicillin/Streptomycin) and 0.5 mg/ml of the selection marker G418.
Cells at approximately 80% confluence were washed 2× with PBS and harvested with Versene (aqueous solution of the tetrasodium salt of ethylenediaminetetraacetic acid), centrifuged 5 min at 1000 rpm and the supernatant removed. The additional steps were all performed on ice. The cell pellet was homogenised by the Ultrathurax for 20-30 s in 10 ml of Buffer 1 (20 mM Na-HEPES, 10 mM EDTA, pH=7.4), centrifuged 15 min at 20,000 rpm and the pellet resuspended in 10 ml of Buffer 2 (20 mM Na-HEPES, 0.1 mM EDTA, pH=7.4). The suspension was homogenised for 20-30 s and centrifuged 15 min at 20,000 rpm. Suspension in Buffer 2, homogenisation and centrifugation was repeated once and the membranes were resuspended in Buffer 2. The protein concentration was determined and the membranes stored at −80° C. until use.
The final volume per well was 50 μl.
AlphaScreen cAMP Assay Kit from Perkin Elmer Life Sciences (cat. No: 6760625M); containing Anti-cAMP Acceptor beads (10 U/μl), Streptavidin Donor beads (10 U/μl) and Biotinylated-cAMP (133 U/μl).
cAMP standard (dilution factor in assay=5): cAMP Solution: 5 μL of a 5 mM cAMP-stock+495 μL AlphaScreen Buffer.
Membranes were prepared from hGLP-1/BHK 467-12A cells with a concentration of 6 μg/well corresponding to 0.6 mg/ml (the amount of membranes used pr. well may vary)
“No membranes”: Acceptor Beads (15 μg/ml final) in AlphaScreen buffer
“6 μg/well membranes”: membranes+Acceptor Beads (15 μg/ml final) in AlphaScreen buffer
An aliquot (10 μl) of “No membranes” was added to the cAMP standard (per well in duplicate wells) and the positive and negative controls
An aliquot (10 μl) of “6 μg/well membranes” was added to GLP-1 and analogues (per well in duplicate or triplicate wells)
Pos. Control: 10 μl “no membranes”+10 μl AlphaScreen Buffer
Neg. Control: 10 μl “no membranes”+10 μl cAMP Stock Solution (50 μM)
1. Make the AlphaScreen Buffer.
2. Dissolve and dilute the GLP-1/Analogues/cAMP standard in AlphaScreen Buffer.
4. Add the cAMP/GLP-1/Analogues to the plate: 10 μl per well.
5. Prepare membrane/Acceptor Beads solution and add this to the plates: 10 μl per well.
6. Add the Donor Beads: 30 μl per well.

[4] = low albumin, 0.001% HSA, read-out: IC50/nM (low HSA)

Row | SMILES | Dose-corrected exposure at 30 min [1] | IC50 [2, 4] | pEC50 [3] | Ratio [(IC50/nM) high HSA]/[(IC50/nM) low HSA] ([2]; 2.0% HSA vs 0.001% HSA) | IC50 ([2]; high albumin, 2.0% HSA, read-out: IC50/nM (high HSA))
1 | CC[C@H](C)[C@H](NC(=O)[C@H](Cc1ccccc1)NC(=O)[C@H](CCCCNC(=O)CC[C@H](NC(=O)COCCOCCNC(=O)COCCOCCNC(=O)CCCCCCCCCCCCC(=O)O)C(=O)O)NC(=O)[C@H](CCCNC(=N)N)NC(=O)[C@@H](NC(=O)[C@H](C)NC(=O)[C@H](CCC(N)=O)NC(=O)[C@H](CCCCNC(=O)CC[C@H](NC(=O)COCCOCCNC(=O)COCCOCCNC(=O)CCCCCCCCCCCCC(=O)O)C(=O)O)NC(=O)[C@H](CCC(=O)O)NC(=O)[C@H](CC(C)C)NC(=O)[C@H](Cc1ccc(O)cc1)NC(=O)[C@H](CO)NC(=O)[C@H](CO)NC(=O)[C@@H](NC(=O)[C@H](CC(=O)O)NC(=O)[C@H](CO)NC(=O)[C@@H](NC(=O)[C@H](Cc1ccccc1)NC(=O)[C@@H](NC(=O)CNC(=O)[C@H](CCC(=O)O)NC(=O)[C@H](C)NC(=O)[C@@H](N)Cc1c[nH]cn1)[C@@H](C)O)[C@@H](C)O)C(C)C)C(C)C)C(=O)N[C@@H](CCC(=O)O)C(=O)N[C@@H](Cc1c[nH]c2ccccc12)C(=O)N[C@@H](CC(C)C)C(=O)N[C@H](C(=O)N[C@@H](CCC(N)=O)C(=O)NCC(=O)N[C@@H](CCCNC(=N)N)C(=O)NCC(=O)O)C(C)C [Example 20, N^ε22-[(4S)-4-carboxy-4-[[2-[2-[2-[[2-[2-[2-(13-carboxytridecanoylamino)ethoxy]ethoxy]acetyl]amino]ethoxy]ethoxy]acetyl]amino]butanoyl], N^ε27-[(4S)-4-carboxy-4-[[2-[2-[2-[[2-[2-[2-(13-carboxytridecanoylamino)ethoxy]ethoxy]acetyl]amino]ethoxy]ethoxy]acetyl]amino]butanoyl]-_[Lys^22,Val^25TArg^26,Lys^27,Glu^30,Gln^34]-GLP-1-(7-37)-peptide] (H-HAEGTFTSDVSSYLEK([γGlu-AEEA-AEEA-C14 diacid])QAVRK([γGlu-AEEA-AEEA-C14 diacid])FIEWLVQGRG-OH; N-terminus and C-terminus assumed) | 123 | 0.19 nM | – | – | –
2 | CC[C@H](C)[C@H](NC(=O)[C@H](Cc1ccccc1)NC(=O)[C@H](CCCCNC(=O)COCCOCCNC(=O)COCCOCCNC(=O)CC[C@H](NC(=O)CCCCCCCCCOc1ccc(C(=O)O)cc1)C(=O)O)NC(=O)[C@H](CCCNC(=N)N)NC(=O)[C@H](C)NC(=O)[C@H](CCCCNC(=O)COCCOCCNC(=O)COCCOCCNC(=O)CC[C@H](NC(=O)CCCCCCCCCOc1ccc(C(=O)O)cc1)C(=O)O)NC(=O)[C@H](CCC(N)=O)NC(=O)[C@H](CCC(=O)O)NC(=O)[C@H](CCC(=O)O)NC(=O)[C@H](CC(C)C)NC(=O)[C@H](Cc1ccc(O)cc1)NC(=O)[C@H](CO)NC(=O)[C@H](CO)NC(=O)[C@@H](NC(=O)[C@H](CC(=O)O)NC(=O)[C@H](CO)NC(=O)[C@@H](NC(=O)[C@H](Cc1ccccc1)NC(=O)[C@@H](NC(=O)CNC(=O)[C@H](CCC(=O)O)NC(=O)[C@H](C)NC(=O)[C@@H](N)Cc1c[nH]cn1)[C@@H](C)O)[C@@H](C)O)C(C)C)C(=O)N[C@@H](C)C(=O)N[C@@H](Cc1c[nH]cn1)C(=O)N[C@@H](CC(C)C)C(=O)N[C@H](C(=O)NCC(=O)O)C(C)C [Example 25, N^ε24-[2-[2-[2-[[2-[2-[2-[[(4S)-4-carboxy-4-[10-(4-carboxyphenoxy)decanoylamino]butanoyl]amino]ethoxy]ethoxy]acetyl]amino]ethoxy]ethoxy]acetyl], N^ε27-[2-[2-[2-[[2-[2-[2-[[(4S)-4-carboxy-4-[10-(4-carboxyphenoxy)decanoylamino]butanoyl]amino]ethoxy]ethoxy]acetyl]amino]ethoxy]ethoxy]acetyl]-[Glu^22,Lys^24,Arg^26,Lys^27,His^31,Gly^34]-GLP-1-(7-34)-peptide] (H-HAEGTFTSDVSSYLEEQK([AEEA-AEEA-γGlu-Decanoyl(10-(4-HOOC-PhO))])ARK([AEEA-AEEA-γGlu-Decanoyl(10-(4-HOOC-PhO))])FIAHLVG-OH; N-terminus and C-terminus assumed) | – | – | 9.42 | – | –
3 | CC[C@H](C)[C@H](NC(=O)[C@H](Cc1ccccc1)NC(=O)[C@H](CCCCNC(=O)CC[C@H](NC(=O)COCCOCCNC(=O)COCCOCCNC(=O)CC[C@@H](NC(=O)CCCCCCCCCOc1ccc(C(=O)O)cc1)C(=O)O)C(=O)O)NC(=O)[C@H](CCCNC(=N)N)NC(=O)[C@@H](NC(=O)[C@H](C)NC(=O)[C@H](CCC(N)=O)NC(=O)CNC(=O)[C@H](CCC(=O)O)NC(=O)[C@H](CC(C)C)NC(=O)[C@H](Cc1ccc(O)cc1)NC(=O)[C@H](CO)NC(=O)[C@H](CO)NC(=O)[C@@H](NC(=O)[C@H](CC(=O)O)NC(=O)[C@H](CO)NC(=O)[C@@H](NC(=O)[C@H](Cc1ccccc1)NC(=O)[C@@H](NC(=O)CNC(=O)[C@H](CCC(=O)O)NC(=O)[C@H](C)NC(=O)[C@@H](N)Cc1c[nH]cn1)[C@@H](C)O)[C@@H](C)O)C(C)C)C(C)C)C(=O)N[C@@H](C)C(=O)N[C@@H](Cc1c[nH]c2ccccc12)C(=O)N[C@@H](CC(C)C)C(=O)N[C@H](C(=O)N[C@@H](CCC(N)=O)C(=O)NCC(=O)N[C@@H](CCCCNC(=O)CC[C@H](NC(=O)COCCOCCNC(=O)COCCOCCNC(=O)CC[C@@H](NC(=O)CCCCCCCCCOc1ccc(C(=O)O)cc1)C(=O)O)C(=O)O)C(=O)NCC(=O)O)C(C)C [Example 26] (H-HAEGTFTSDVSSYLEGQAVRK([γGlu-AEEA-AEEA-d(γGlu)-Decanoyl(10-(4-HOOC-PhO))])FIAWLVQGK([γGlu-AEEA-AEEA-d(γGlu)-Decanoyl(10-(4-HOOC-PhO))])G-OH; N-terminus and C-terminus assumed) | – | 0.38 nM | 9.70 | – | –
4 | CC[C@H](C)[C@H](NC(=O)[C@H](Cc1ccccc1)NC(=O)[C@H](CCCCNC(=O)COCCOCCNC(=O)COCCOCCNC(=O)CC[C@H](NC(=O)CCCCCCCCCCCCC(=O)O)C(=O)O)NC(=O)[C@H](CCCNC(=N)N)NC(=O)[C@@H](NC(=O)[C@H](CCCCNC(=O)COCCOCCNC(=O)COCCOCCNC(=O)CC[C@H](NC(=O)CCCCCCCCCCCCC(=O)O)C(=O)O)NC(=O)[C@H](CCC(N)=O)NC(=O)[C@H](CCC(=O)O)NC(=O)[C@H](CCC(=O)O)NC(=O)[C@H](CC(C)C)NC(=O)[C@H](Cc1ccc(O)cc1)NC(=O)[C@H](CO)NC(=O)[C@H](CO)NC(=O)[C@@H](NC(=O)[C@H](CC(=O)O)NC(=O)[C@H](CO)NC(=O)[C@@H](NC(=O)[C@H](Cc1ccccc1)NC(=O)[C@@H](NC(=O)CNC(=O)[C@H](CCC(=O)O)NC(=O)C(C)(C)NC(=O)[C@@H](N)Cc1c[nH]cn1)[C@@H](C)O)[C@@H](C)O)C(C)C)C(C)C)C(=O)N[C@@H](C)C(=O)N[C@@H](Cc1c[nH]cn1)C(=O)N[C@@H](CC(C)C)C(=O)N[C@H](C(=O)N[C@@H](CCC(N)=O)C(=O)NCC(=O)N[C@@H](CCCNC(=N)N)C(=O)NCC(=O)O)C(C)C [Example 29, N^ε24-[2-[2-[2-[[2-[2-[2-[[(4S)-4-carboxy-4-(13-carboxytridecanoylamino)butanoyl]amino]ethoxy]ethoxy]acetyl]amino]ethoxy]ethoxy]acetyl], N^ε27-[2-[2-[2-[[2-[2-[2-[[(4S)-4-carboxy-4-(13-carboxytridecanoylamino)butanoyl]amino]ethoxy]ethoxy]acetyl]amino]ethoxy]ethoxy]acetyl]-[Aib^8,Glu^22,Lys^24,Val^25,Arg^26,Lys^27,His^31,Gln^34]-GLP-1-(7-37)-peptide] (H-H[Aib]EGTFTSDVSSYLEEQK([AEEA-AEEA-γGlu-C14 diacid])VRK([AEEA-AEEA-γGlu-C14 diacid])FIAHLVQGRG-OH) | – | 3.95 nM | 10.40 | 92 | 363 nM
